This note sets out measurements from patent publication US9751884B2, “N-aryl unsaturated fused ring tertiary amine compounds, preparation method and anti-tumor applications thereof” (Institute of Pharmacology and Toxicology Academy of …, priority 2012, dated 2017).

Molecules are shown by their SMILES. Values after ≈ are worked out from the molar mass of the structure shown.

By GI50 is commonly meant the concentration at which growth is held to half of that of the control. The low end stands for more potent growth inhibition, the high end for less potent growth inhibition. As usually defined, the melting point is the temperature of the solid-liquid transition.

The subject of data set [1] is DU145 prostate cancer cells. Put plainly: Experiments of inhibiting growth of cancer cells, SRB method, DU145. Format: cell-based. As to conditions: Homo sapiens, DU-145, 48 h with drug. As to the method:
(§1) The cells were placed in 2.5 cm culture dish and cultured at 37° C. in wet air containing 5% CO2. Cell lines grew adhering to wall. The preparation and dilution of samples as well as process for inoculating them to cellular fluid were performed under aseptic condition. The test samples usually were dissolved in DMSO, stored at −70° C. […] GI50 values about inhibiting growth of cancer cells were determined by SRB (sulfonyl rhodamine B) method. Anticancer drug paclitaxel was used as positive control.
(§2) A549: lung cancer cells; DU145: prostate cancer cells; KB: nasopharyngeal cancer cells; KB-VIN: drug-resistant nasopharyngeal cancer cells. GI50 value was the concentration that causes 50% cancer cells growth inhibition, showing anticancer activity.

The subject of a further data set is A549 lung cancer cells. Put plainly: Experiments of inhibiting growth of cancer cells, SRB method, A549. Format: cell-based. The note with it: Homo sapiens, 48 h with drug. As to the method:
as §1, §2
A general note: In SRB staining, fixed cells bind dye roughly in proportion to their protein.

`COc1ccc2c(c1)CCCN2c1nc(Cl)nc2ccccc12` [Compound 1, N^1-[4-(2-chloro)quinazolinyl]-6-methoxy-1,2,3,4-tetrahydroquinoline]: the values for the concentration for 50% growth inhibition (GI50) (in data set [1]; in the data set on A549 lung cancer cells) were 0.0005 µg/mL (≈ 0.00153 µM) and 0.0006 µg/mL (≈ 0.00184 µM), respectively.
Taken in the same sequence, the figures for `COc1ccc2c(c1)CCCN2c1nc(C)nc2ccccc12` [Compound 2, N^1-[4-(2-methyl)quinazolinyl]-6-methoxy-1,2,3,4-tetrahydroquinoline] were 0.0046 µg/mL (≈ 0.0151 µM) and 0.0056 µg/mL (≈ 0.0183 µM).
With `COc1ccc2c(c1)CCCN2c1nc(OC)nc2ccccc12` [Compound 3, N^1-[4-(2-methoxy)quinazolinyl]-6-methoxy-1,2,3,4-tetrahydro-quinoline], the melting point was in the range of 161 to 163 °C. Besides, halving of growth in data set [1] (GI50) required 0.0069 µg/mL (≈ 0.0215 µM). Also, in the data set with A549 lung cancer cells, it took 0.0077 µg/mL (≈ 0.024 µM) to inhibit growth by half (GI50).
As for `CNc1nc(N2CCCc3cc(OC)ccc32)c2ccccc2n1` [Compound 4, N^1-[4-(2-methylamino)quinazolinyl]-6-methoxy-1,2,3,4-tetrahydro-quinoline], the GI50 in data set [1] came out at 0.0075 µg/mL (≈ 0.0234 µM); in the data set with A549 lung cancer cells it was 0.0088 µg/mL (≈ 0.0275 µM).
With `Cc1ccc2c(c1)CCCN2c1nc(C)nc2ccccc12` [Compound 6, N^1-[4-(2-methyl)quinazolinyl]-6-methyl-1,2,3,4-tetrahydroquinoline], the melting point lay within 136 to 138 °C. Besides, the GI50 in data set [1] came to 0.051 µg/mL (≈ 0.176 µM). In the data set on A549 lung cancer cells, this compound gave a GI50 of 0.061 µg/mL (≈ 0.211 µM).
Regarding `Cc1nc(N2CCCc3cc(Br)ccc32)c2ccccc2n1` [Compound 7, N^1-[4-(2-methyl)quinazolinyl]-6-bromo-1,2,3,4-tetrahydroquinoline], the melting point is 129 to 130 °C. This compound also showed a GI50 in data set [1] of 0.06 µg/mL (≈ 0.169 µM). This compound also returned a GI50 with A549 lung cancer cells of 0.075 µg/mL (≈ 0.212 µM).
The corresponding values for `COc1ccc2c(c1)CCN2c1nc(C)nc2ccccc12` [Compound 8, 2-Methyl-4-[N^1-(5-methoxy)indolinyl]quinazoline] are 116 to 117 °C, 0.059 µg/mL (≈ 0.203 µM) and 0.0679 µg/mL (≈ 0.233 µM).
For the compound `COc1ccc2c(c1)CCCN(c1nc(C)nc3ccccc13)C2` [Compound 9, N^2-[4-(2-methyl)quinazolinyl]-7-methoxy-2,3,4,5-tetrahydro-1H-benzo[c]azepine], the melting point lay within 125 to 127 °C. This compound yielded a GI50 in data set [1] of 4.76 µg/mL (≈ 14.9 µM). Also, it took 5.34 µg/mL (≈ 16.7 µM) to inhibit growth with A549 lung cancer cells by half (GI50).
The corresponding values for `COc1ccc2c(c1)CCCCN2c1nc(Cl)nc2ccccc12` [Compound 10, N^1-[4-(2-chloro)quinazolinyl]-7-methoxy-2,3,4,5-tetrahydro-1H-benzo[b]-azepine] are 102 to 103 °C, 0.056 µg/mL (≈ 0.165 µM) and 0.065 µg/mL (≈ 0.191 µM).
As to `COc1ccc2c(c1)C(O)CCN2c1nc(C)nc2ccccc12` (stereo not shown) [Compound 11, N^1-[4-(2-methyl)quinazolinyl]-4-hydroxyl-6-methoxy-1,2,3,4-tetrahydroquinoline], the GI50 (in data set [1]; in the data set with A549 lung cancer cells) was 0.006 µg/mL (≈ 0.0187 µM) each time.
Compound `CCOC1CCN(c2nc(Cl)nc3ccccc23)c2ccc(OC)cc21` (stereo not shown) [Compound 12, N^1-[4-(2-chloro)quinazolinyl]-4-ethoxy-6-methoxy-1,2,3,4-tetrahydroquinoline] returned a melting point of 70 to 72 °C. In addition, the GI50 in data set [1] is 0.06 µg/mL (≈ 0.162 µM). In the data set on A549 lung cancer cells, the GI50 was found to be 0.065 µg/mL (≈ 0.176 µM).
Taken in the same sequence, the figures for `COc1ccc2c(c1)OCCN2c1nc(Cl)nc2ccccc12` [Compound 13, N^4-[4-(2-chloro)quinazolinyl]-7-methoxy-3,4-dihydro-2H-benzo[b][1,4]oxazine] were 173 to 174 °C, 0.055 µg/mL (≈ 0.168 µM) and 0.065 µg/mL (≈ 0.198 µM).
Taken in the same sequence, the figures for `COc1cc2c(cc1F)N(c1nc(C)nc3ccccc13)CCO2` [Compound 14, N^4-[4-(2-methyl)quinazolinyl]-6-fluoro-7-methoxy-3,4-dihydro-2H-benzo[b][1,4]oxazine] were 192 to 194 °C, 7.77 µg/mL (≈ 23.9 µM) and 4.71 µg/mL (≈ 14.5 µM).
The corresponding values for `COc1ccc2c(c1)C(=O)CCN2c1nc(Cl)nc2ccccc12` [Compound 18, N^1-[4-(2-chloro)quinazolinyl]-6-methoxy-2,3-dihydroquinolin-4(1H)-one] are 218 to 220 °C, 0.0106 µg/mL (≈ 0.0312 µM) and 0.0091 µg/mL (≈ 0.0268 µM).
For `COc1ccc2c(c1)NC(=O)CN2c1nc(C)nc2ccccc12` [Compound 19, N^4-[4-(2-methyl)quinazolinyl]-7-methoxy-3,4-dihydroquinoxalin-2(1H)-one], the GI50 was 0.0007 µg/mL (≈ 0.00219 µM) in data set [1] and 0.001 µg/mL (≈ 0.00312 µM) with A549 lung cancer cells.
Taken in the same sequence, the figures for `COc1ccc2c(c1)CCCN2c1cc(C)nc2ccccc12` [Compound 20, 6-methoxy-2′-methyl-3,4-dihydro-2H-1,4′-biquinoline] were 0.0115 µg/mL (≈ 0.0378 µM) and 0.0138 µg/mL (≈ 0.0453 µM).
Taken in the same sequence, the figures for `COC(=O)c1cc(Br)cc(N2CCCc3cc(OC)ccc32)c1` [Compound 26, N^1-[(3-bromo-5-methoxycarbonyl)phenyl]-6-methoxy-1,2,3,4-tetrahydroquinoline] were 0.483 µg/mL (≈ 1.28 µM) and 0.421 µg/mL (≈ 1.12 µM).
`COc1ccc2c(c1)CCCN2c1cc(Br)cc(C(=O)O)c1` [Compound 27, N^1-[(3-bromo-5-carboxyl)phenyl]-6-methoxy-1,2,3,4-tetrahydro-quinoline] registered a melting point of 175 to 177 °C.
`CNC(=O)c1cc(Br)cc(N2CCCc3cc(OC)ccc32)c1` [Compound 28, N^1-[(3-bromo-5-methylaminoacyl)phenyl]-6-methoxy-1,2,3,4-tetrahydroquinoline]: the melting point was in the range of 166 to 167 °C. Also, it took 0.209 µg/mL (≈ 0.557 µM) to inhibit growth in data set [1] by half (GI50). The compound further had a GI50 in the data set on A549 lung cancer cells of 0.14 µg/mL (≈ 0.373 µM).
For `COc1ccc2c(c1)CCCN2c1cc(Br)cc(C(=O)NC2CC2)c1` [Compound 29, N^1-[3-bromo-5-(N-cyclopropylaminoacyl)phenyl]-6-methoxy-1,2,3,4-tetrahydroquinoline], the concentration for 50% growth inhibition (GI50) was determined as 0.062 µg/mL (≈ 0.154 µM) in data set [1] and 0.067 µg/mL (≈ 0.167 µM) in the data set with A549 lung cancer cells.
For the compound `COc1ccc2c(c1)CCCN2c1cc(Cl)nc(N)n1` [Compound 30, N^1-[4-(2-amino-6-chloro)pyrimidinyl]-6-methoxy-1,2,3,4-tetrahydro-quinoline], the melting point was 179 to 181 °C. In addition, the GI50 in data set [1] was found to be 0.06 µg/mL (≈ 0.206 µM). Further, it took 0.077 µg/mL (≈ 0.265 µM) to inhibit growth with A549 lung cancer cells by half (GI50).
In the case of `COc1ccc2c(c1)N(C)C(=O)CN2c1nc(C)nc2ccccc12` [Compound 31, N^1-methyl-N^4-[4-(2-methyl)quinazolinyl]-7-methoxy-3,4-dihydro-quinoxalin-2(1H)-one], the GI50 in data set [1] was 0.0072 µg/mL (≈ 0.0215 µM); in the data set with A549 lung cancer cells, 0.0063 µg/mL (≈ 0.0188 µM).
The corresponding values for `COc1ccc2c(c1)CCCN2c1nc(N(C)C)nc2ccccc12` [Compound 32, 2-(N-methylmethylamino)-4-(6-methoxy-1,2,3,4-tetrahydro-1-quinolyl)quinazoline] are 0.051 µg/mL (≈ 0.153 µM) and 0.056 µg/mL (≈ 0.167 µM).
For the compound `COc1ccc2c(c1)CCCN2c1nc(NC2CC2)nc2ccccc12` [Compound 33, 2-cyclopropylamino-4-(6-methoxy-1,2,3,4-tetrahydro-1-quinolyl) quinazoline], the concentration for 50% growth inhibition (GI50) in data set [1] was found to be 0.0045 µg/mL (≈ 0.013 µM); in the data set with A549 lung cancer cells it was 0.0057 µg/mL (≈ 0.0165 µM).
Taken in the same sequence, the figures for `COc1ccc2c(c1)CCCN2c1nc(NC2CCCC2)nc2ccccc12` [Compound 34, 2-cyclopentylamino-4-(6-methoxy-1,2,3,4-tetrahydro-1-quinolyl) quinazoline] were 0.483 µg/mL (≈ 1.29 µM) and 0.501 µg/mL (≈ 1.34 µM).
On to `COc1ccc2c(c1)CCCN2c1nc(NCCCO)nc2ccccc12` [Compound 35, 2-(3-hydroxylpropylamino)-4-(6-methoxy-1,2,3,4-tetrahydro-1-quinolyl)quinazoline], for which the values for the GI50 (in data set [1]; in the data set with A549 lung cancer cells) were 0.0073 µg/mL (≈ 0.02 µM) and 0.0058 µg/mL (≈ 0.0159 µM), respectively.
Taken in the same sequence, the figures for `COc1ccc2c(c1)CCCN2c1cccc2ccccc12` [Compound 37, 4-(6-methoxy-1,2,3,4-tetrahydro-1-quinolyl)naphthalene] were 4.27 µg/mL (≈ 14.8 µM) and 5.15 µg/mL (≈ 17.8 µM).
The corresponding values for `CC(=O)O[C@H]1C(=O)[C@@]2(C)[C@H]([C@H](OC(=O)c3ccccc3)[C@]3(O)C[C@H](OC(=O)[C@H](O)[C@@H](NC(=O)c4ccccc4)c4ccccc4)C(C)=C1C3(C)C)[C@]1(OC(C)=O)CO[C@@H]1C[C@@H]2O` [Paclitaxel, paclitaxel, reference compound] are 0.0053 µg/mL (≈ 0.00621 µM) and 0.0065 µg/mL (≈ 0.00761 µM).
